From patent US20250388592A1 (REMYND N.V., priority 2022, published 2025) come the findings set out here.

As a reminder, the EC50 is the concentration needed to bring the measured effect to its halfway point. A lower EC50 goes with a more potent agent.

Each structure is given as a SMILES string.

This experiment has as its system M17_3TAU(P301L) cells. The experiment in a line: TAU-induced cytotoxicity (LDH) in the neuroblastoma tauopathy model. The class given is cell-based. The following applies: Homo sapiens, 168 h, inhibition of TAU-induced toxicity, 7 days retinoic acid differentiation, LDH readout. An excerpt: A TAU expression plasmid was constructed by sub-cloning the cDNA encoding for human TAU-P301L protein, wherein proline at position 301 is substituted by a leucine residue, into mammalian expression vector pcDNA3.1 resulting in the plasmid pcDNA3.1-TAUP301L. Plasmids pcDNA3.1 and pcDNA3.1-TAU P301L were transfected into human neuroblastoma cells (BE-M17; ATCC No. CRL-2267™) using lipofectamine reagent and subsequently, independent clonal cell lines with the plasmids stably integrated into the genome were selected by antibiotic resistance selection (Geneticin (G418)), resulting in cell lines M17.pcDNA3 and M17_3TAUP301L. Expression of the TAUP301 L gene in the M17_3TAUP301 L cells was confirmed by Western blot analysis.
Differentiation of the cells with RA leads to phosphorylation and subsequent aggregation of TAU, inducing a tauopathy in these cells. Cytotoxicity of cells was measured by quantification of lactate dehydrogenase (LDH) levels. In dead cells LDH is leaked out of the cells into the medium due to a loss of plasma-membrane integrity.
Briefly, 3 days preceding the experiment pre-cultures of M17.pcDNA3 and M17_3TAU(P301L) cells were prepared, starting from a stock culture, at a density of 50.000-100.000 cells/cm2 in detection medium (Optimem Reduced Serum without phenol red (Gibco, Cat. 31985-047) supplemented with 1% fetal calf serum (FCS), 1 mM sodium pyruvate, 1×non-essential amino acids (NEAA), 500 μg/ml G418 and 0.5×antibiotic/antimycotic (ABAM)). At the day of the experiment these precultures were diluted to ˜[…] in detection medium without FCS and 60 μL of this suspension is dispensed per well into a 96-well microtiter plate. After 3 hours of incubation at 37° C./5% C02 an equal volume of detection medium containing 2.5 μM RA was added and subsequently incubated for 7 days at 37° C./5% CO2. After 7 days, LDH activity was determined using the Promega Cytotox 96 Non-Radioactive cytotoxicity assay (Cat. G1780), according the manufacturer's instructions. Cytotoxicity is measured as the ratio of LDH increase in the supernatant divided by the LDH increase in the total cell suspension (sum of the LDH measured in cells and supernatant). Toxicity was determined after 7 days of differentiation with retinoic acid in M17_3TAU(P301 L) cells compared to M17.pcDNA3 cells.
The M17_3TAU(P301L) cell line makes it possible to assess the ability of novel compounds to inhibit TAU-induced cytotoxicity. […] Compounds were tested for their ability to hamper TAU-induced toxicity at different concentrations, ranging from low non-effective concentrations to high potent concentrations. Afterwards, the dose-dependent inhibition curve was used to calculate their EC50 (Table 3B).
With `CC(Cc1ccccc1)N1CC2(CN(C(=O)Cc3ccc(Cl)cc3)C2)C1` (stereo not drawn) [Cpd B054, 2-(4-chlorophenyl)-1-(6-(1-phenylpropan-2-yl)-2,6-diazaspiro[3.3]heptan-2-yl)ethanone], the concentration for a half-maximal effect (EC50) is 19.2 nM. This counts as double-digit nanomolar.
The figure for `Cc1cnc(CN2CC3(C2)CN(C(=O)NCc2ccc(F)cc2)C3)s1` [Cpd B440] is 260 nM.
Turning to `O=C(Cc1ccnc(Cl)c1)N1CC2(CN(Cc3ccc(F)cc3)C2)C1` [Cpd B442], a half-maximal effect (EC50) was put at 200 nM.
`O=C(CC1CCC(F)(F)CC1)N1CC2(CN(Cc3ncccc3F)C2)C1` [Cpd B464] showed an EC50 of 40.1 nM.
In turn, `O=C(NC1CCC(F)(F)CC1)N1CC2(CN(Cc3ccc(C(F)(F)F)cc3)C2)C1` [Cpd B460] had an EC50 of 63 nM.
`O=C(OCC1CCC(F)(F)CC1)N1CC2(CN(Cc3ccc(C(F)(F)F)cc3)C2)C1` [Cpd B164]: the EC50 came out at 19.1 nM.
The figure for `Cc1csc(CN2CC3(C2)CN(C(=O)CC2CCC(F)(F)CC2)C3)n1` [Cpd B445] is 157 nM; for `O=C(N1CC2(CN(Cc3ccc(F)cc3)C2)C1)C(F)(F)c1ccc(F)cc1` [Cpd B099] it is 86 nM; for `O=C(OCC1CCC(F)(F)CC1)N1CC2(CN(Cc3ccc(F)cn3)C2)C1` [Cpd B161] it is 49.3 nM.
The molecule `Clc1ccc(Cc2nsc(NC3CC4(CC(NCc5ccc6c(c5)OCO6)C4)C3)n2)cc1` (stereo not drawn) [Cpd B320, N-(benzo[d][1,3]dioxol-5-ylmethyl)-N′-(3-(4-chlorobenzyl)-1,2,4-thiadiazol-5-yl) spiro[3.3]heptane-2,6-diamine] registered an EC50 of 1.4 nM.
Turning to `Cc1nc(CN2CC3(C2)CN(C(=O)OCC2CCC(F)(F)CC2)C3)cs1` [Cpd B156], the EC50 came out at 83.3 nM.
In turn, `COc1cccc(CC(=O)N2CC3(CN(Cc4ncccc4C)C3)C2)c1` [Cpd B416] gave an EC50 of 2220 nM.
With `O=C(OCC1CCCC1)N1CC2(CN(Cc3ccc(F)cc3)C2)C1` [Cpd B131], a half-maximal effect (EC50) was put at 4.38 nM.
Regarding `CC(C)(C(=O)c1ccccc1)N1CC2(CN(C(=O)Cc3ccc(Cl)cc3)C2)C1` [Cpd B050, 2-(6-(2-(4-chlorophenyl)acetyl)-2,6-diazaspiro[3.3]heptan-2-yl)-2-methyl-1-phenylpropan-1-one], a half-maximal response (EC50) required 72.8 nM.
`CC(C)(C(=O)c1ccccc1)N1CC2(CN(C(=O)Cc3ccc(F)cc3)C2)C1` [Cpd B029, 2-{6-[2-(4-Fluoro-phenyl)-acetyl]-2,6-diaza-spiro[3.3]hept-2-yl}-2-methyl-1-phenyl-propan-1-one]: the concentration for a half-maximal effect (EC50) turned out to be 8.3 nM.
As to `Cn1ncc(Cl)c1CN1CC2(C1)CN(C(=O)OC1CCC(F)(F)CC1)C2` [Cpd B142, 4,4-difluorocyclohexyl 6-((4-chloro-1-methylpyrazol-5-yl)methyl)-2,6-diazaspiro[3.3]heptane-2-carboxylate], the response was half-maximal at 864 nM (EC50). Compared with the last molecule, the EC50 is about 100-fold higher.
Turning to `Cc1cccc(C(=O)N2CC3(CN(Cc4ncccc4C)C3)C2)c1` [Cpd B407], the EC50 was determined as 4310 nM.
On to `NC(=O)c1cccc(CN2CC3(C2)CN(C(=O)Cc2ccc(F)cc2)C3)c1` [Cpd B012, 3-{6-[2-(4-Fluoro-phenyl)-acetyl]-2,6-diaza-spiro[3.3]hept-2-ylmethyl}-benzamide], for which the half-maximal effective concentration (EC50) is 45.2 nM. Compared with the last molecule, the EC50 is about 95-fold lower.
Turning to `O=C(OCC1CCC(F)(F)CC1)N1CC2(CN(Cc3ncccc3Cl)C2)C1` [Cpd B160], the 50% effective concentration (EC50) turned out to be 3.68 nM.
The molecule `Fc1ccccc1CNC1CC2(C1)CC(Nc1nc(Cc3ccc(Cl)cc3)ns1)C2` (stereo not drawn) [Cpd B312, N-(3-(4-chlorobenzyl)-1,2,4-thiadiazol-5-yl)-N′-(2-fluorobenzyl) spiro[3.3]heptane-2,6-diamine] gave an EC50 of 2.2 nM.
Turning to `COc1cccc(CN2CC3(C2)CN(C(=O)CCC2CCCC2)C3)c1` [Cpd B071], the EC50 came to 2.96 nM.
For `O=C(CC1CCC(F)(F)CC1)N1CC2(CN(Cc3ccc(F)cc3F)C2)C1` [Cpd B105], the response was half-maximal at 2.6 nM (EC50).
The figure for `COc1ccc(CCN2CC3(C2)CN(C(=O)Cc2ccc(F)cc2)C3)cc1` [Cpd B025, 2-(4-Fluoro-phenyl)-1-{6-[2-(4-methoxy-phenyl)-ethyl]-2,6-diaza-spiro[3.3]hept-2-yl}-ethanone] is 17.9 nM; for `CC(C)CCN1CC2(C1)CN(C(=O)Cc1ccc(Cl)cc1)C2` [Cpd B053, 2-(4-chlorophenyl)-1-(6-isopentyl-2,6-diazaspiro[3.3]heptan-2-yl)ethanone] it is 5.07 nM.
The molecule `Cc1nc(CN2CC3(C2)CN(C(=O)OCc2ccc(Cl)cc2)C3)cs1` [Cpd B429] gave a concentration for a half-maximal effect (EC50) of 746 nM.
`COc1ccc(CCN2CC3(C2)CN(C(=O)Cc2ccc(Cl)cc2)C3)cc1` [Cpd B046, 2-(4-chlorophenyl)-1-(6-(4-methoxyphenethyl)-2,6-diazaspiro[3.3]heptan-2-yl)ethanone]: the midpoint of the response, the EC50, lay at 4.11 nM.
The molecule `CN(Cc1ccccc1)C1CC2(CC(NC(=O)Cc3ccc(F)cc3)C2)C1` (stereo not drawn) [Cpd B067, N-(6-(benzyl(methyl)amino)spiro[3.3]heptan-2-yl)-2-(4-fluorophenyl)acetamide] showed a half-maximal effective concentration (EC50) of 3.54 nM.
`Cc1nc(CN2CC3(C2)CN(C(=O)CC2CCC(F)(F)CC2)C3)co1` [Cpd B127] returned an EC50 of 67.6 nM.
The value for `O=C(Cc1ccc(F)c(F)c1)N1CC2(CN(Cc3ccccc3)C2)C1` [Cpd B007, 1-(6-benzyl-2,6-diazaspiro[3.3]heptan-2-yl)-2-(3,4-difluorophenyl)ethanone] was 4.16 nM.
On to `Cc1c(CN2CC3(C2)CN(C(=O)NCc2ccc(F)cc2)C3)cnn1C` [Cpd B413], for which the half-maximal effective concentration (EC50) turned out to be 2770 nM.
`Cc1cc(CNC2CC3(C2)CC(Nc2nc(Cc4ccc(Cl)cc4)ns2)C3)ccc1F` (stereo not drawn) [Cpd B309, N-(3-(4-chlorobenzyl)-1,2,4-thiadiazol-5-yl)-N′-(4-fluoro-3-methylbenzyl) spiro[3.3]heptane-2,6-diamine]: it took 12 nM to reach a half-maximal effect (EC50). This EC50 is about 230-fold lower than that of the molecule before.
Molecule `COc1ccc(CNC2CC3(C2)CC(Nc2nc(Cc4ccc(Cl)cc4)ns2)C3)cc1` (stereo not drawn) [Cpd B318, N-(3-(4-chlorobenzyl)-1,2,4-thiadiazol-5-yl)-N′-(4-methoxybenzyl) spiro[3.3]heptane-2,6-diamine] displayed an EC50 of 10.1 nM.
The value for `Cn1cc(CN2CC3(C2)CN(C(=O)NCc2ccc(F)cc2)C3)cn1` [Cpd B405] was 4820 nM; that for `Cc1cccc(CNC2CC3(C2)CC(Nc2nc(Cc4ccc(Cl)cc4)ns2)C3)c1` (stereo not drawn) [Cpd B324, N-(3-(4-chlorobenzyl)-1,2,4-thiadiazol-5-yl)-N′-(3-methylbenzyl) spiro[3.3]heptane-2,6-diamine] was 2.6 nM; that for `O=C(NCC1CCC(F)(F)CC1)N1CC2(CN(Cc3ncccc3Cl)C2)C1` [Cpd B196] was 12.5 nM.
Turning to `COc1cc(OC)nc(CN2CC3(C2)CN(C(=O)Cc2ccc(F)cc2)C3)n1` [Cpd B064, 1-[6-(4,6-Dimethoxy-pyrimidin-2-ylmethyl)-2,6-diaza-spiro[3.3]hept-2-yl]-2-(4-fluoro-phenyl)-ethanone], the midpoint of the response, the EC50, lay at 32.8 nM.
The figure for `Fc1cc(F)cc(CNC2CC3(C2)CC(Nc2nc(Cc4ccc(Cl)cc4)ns2)C3)c1` (stereo not drawn) [Cpd B329, N-(3-(4-chlorobenzyl)-1,2,4-thiadiazol-5-yl)-N′-(3,5-difluorobenzyl) spiro[3.3]heptane-2,6-diamine] is 2.3 nM; for `Cn1cc(Cl)c(CN2CC3(C2)CN(C(=O)OCC2CCC(F)(F)CC2)C3)n1` [Cpd B159] it is 2.29 nM.
`Cc1cccnc1CN1CC2(C1)CN(C(=O)Cc1ccc(C(F)(F)F)cc1)C2` [Cpd B078]: the EC50 amounted to 12.6 nM.
In the case of `O=C(Cc1ccccc1O)N1CC2(CN(Cc3ccc(F)cc3)C2)C1` [Cpd B423], the concentration giving a half-maximal response (EC50) was found to be 972 nM. Against the preceding molecule, the EC50 is about 77-fold higher.
The figure for `COc1ccccc1CNC1CC2(C1)CC(Nc1nc(Cc3ccc(Cl)cc3)ns1)C2` (stereo not drawn) [Cpd B305, N-(3-(4-chlorobenzyl)-1,2,4-thiadiazol-5-yl)-N′-(2-methoxybenzyl) spiro[3.3]heptane-2,6-diamine] is 2.2 nM.
Take `Cc1cccnc1CN1CC2(C1)CN(C(=O)Cc1ccc(F)c(C(F)(F)F)c1)C2` [Cpd B077]: the EC50 is 3.68 nM.
`Cc1cccc(CN2CC3(C2)CN(C(=O)Cc2ccc(F)cc2)C3)n1` [Cpd B017, 2-(4-Fluoro-phenyl)-1-[6-(6-methyl-pyridin-2-ylmethyl)-2,6-diaza-spiro[3.3]hept-2-yl]-ethanone] gave an EC50 of 26.7 nM.
Take `O=C(OCC12CC(F)(C1)C2)N1CC2(CN(Cc3ccc(F)cc3)C2)C1` [Cpd B129]: the EC50 was found to be 97 nM.
Turning to `Cc1ccc(CN2CC3(C2)CN(C(=O)NCc2ccc(F)cc2)C3)[nH]1` [Cpd B421], the concentration giving a half-maximal response (EC50) came out at 981 nM.
